Results taken from patent publication US10857082B2, “Diarylalkanes as potent inhibitors of binuclear enzymes” (Unigen, Inc., priority 2004, dated 2020).
“Also recorded” adds a separate entry of the source. Like-named read-outs stand apart in the source and are kept apart here. One block for each compound: values may come before it.

Columns and labels:
[1] = biological target: DOPA oxidase activity; conditions: cited from earlier work
[2] = biological target: human tyrosinase hydroxylase activity (Homo sapiens (Human), UniProt P14679); conditions: cited from earlier work
[3] = tested on: B16 F1 murine melanoma cells; conditions: read-out: IC50, melanin biosynthesis; cited from earlier work
[4] = tested on: B16 F1 cells; experiment: Inhibition of melanin production in B16 F1 cells without β-MSH induction (endogenous); type: cell-based, mouse; conditions: for Inhibition of melanin production relative to kojic acid, in words: B-16 cell line model, with and without β-MSH induction
From the text: (§1) Color development was visually monitored each morning.

[5] = tested on: B16 F1 cells; experiment: Cell toxicity assay, lactate dehydrogenase (LDH)
Protocol: The inhibition of melanin production was evaluated using two different assays. In the first assay, the inhibition of melanin production was evaluated without induction by β-MSH; whereas in the second assay the inhibition of melanin production was measured with β-MSH induction in cell culture medium. Briefly, B16 F1 cells (ATCC #CRL-622) were grown to confluency and then seeded at 40,000 cells per well. The cells were allowed to attach overnight at 37° C. in a humidified environment containing 5% CO2. On day 2, inhibitors were added to the cells at concentrations ranging from 0-1000 μM in triplicate and allowed to incubate for four days. The amount of β-MSH required to induce melanin formation was determined by the addition of hormone at concentrations ranging from 0-1000 nM in ten-fold increments. Once the proper β-MSH concentration was determined, cells were seeded as above, allowed to attach overnight and then co-incubated with tyrosinase inhibitors at concentrations ranging from 0-1000 μM. Color development was visually monitored each morning. After the development of color, 200 μl of cell supernatant was removed from each well and absorbance was measured at 450 nm. The resulting readings were used to determine the IC50 for melanin formation in the cell assay with and without β-MSH induction. For an initial comparison of cell toxicity, the 250 μM treated wells were used to perform a lactate dehydrogenase assay (LDH). LDH is a metabolic enzyme that leaks out of damaged or dead cells. The enzyme converts a chromophore in the presence of NAD^+ to yield a color change that can be monitored spectrophotometrically.
The compound treated wells were used to perform a lactate dehydrogenase assay (LDH). LDH is a metabolic enzyme that leaks out of damaged or dead cells. The enzyme converts a chromophore in the presence of NAD^+ to yield a color change that can be monitored spectrophotometrically. The cytotoxicity was examined at a concentration of 250 μM. […] It should be noted however, that cytotoxicity at only one concentration (250 μM) was tested.

[6] = tested on: B16 F1 cells; experiment: Inhibition of melanin production in B16 F1 cells with β-MSH induction; type: cell-based, mouse
From the text: as §1

[7] = biological target: mushroom tyrosinase (Agaricus bisporus, UniProt C7FF04); experiment: Tyrosinase inhibition assay (L-DOPA to dopachrome, absorbance at 450 nm); type: biochemical
Protocol: (§2) A tyrosinase inhibition assay was carried out using the method reported by Jones et al. (2002) Pigment. Cell Res. 15:335. Using this method, the conversion of L-Dopa, a substrate of tyrosinase, into dopachrome is followed by monitoring absorption at 450 nm. Tyrosinase was prepared in 50 mM potassium phosphate buffer, pH 6.8 (assay buffer) at 2000 U/ml and stored at −20° C. in 1 ml aliquots prior to use. For use in assays, stock enzyme solutions were thawed and diluted to 200 U/ml with assay buffer. A 2 mM working solution of substrate, L-DOPA, was prepared in assay buffer for each assay. Samples were dissolved in 10% DMSO (0.5 ml) and diluted to 5 ml with assay buffer. The reaction mixture consisted of 0.050 ml 2 mM L-DOPA, 0.050 ml 200 U/ml mushroom tyrosinase and 0.050 ml inhibitor. Reaction volume was adjusted to 200 μl with assay buffer. Assays were performed in 96 well Falcon 3097 flat-bottom microtiter plates (Beckton Dickinson, N.J.). Appearance of dopachrome was measured with a WALLAC 1420 Multilable Counter (Turku, Finland). Average velocity was determined from linear enzyme rate as measured by change in absorbance (ΔA450) at 450 nm per minute. Percent inhibition of tyrosinase by test samples was determined by comparison of absorbance of samples versus control using formula (I): (Negative control absorption-sample absorption)/Negative control absorption×100 (1)
Inhibition of tyrosinase by synthetic diarylalkanes was measured using the method described in Example 2. The IC50 value of each sample was calculated using kinetics software to verify that the reaction was linear at a specified time and concentration.

[8] = tested on: tyrosinase; experiment: Enzyme inhibition kinetics with L-DOPA as substrate; type: biochemical, mushroom
Protocol: as §2, with “A 2 mM working solution of substrate, L-DOPA, was prepared in assay buffer for each assay.” left out, “The reaction mixture consisted of 0.050 ml 2 mM L-DOPA, 0.050 ml 200 U/ml mushroom tyrosinase and 0.050 ml inhibitor.” left out

[9] = Table 3, mouse B16 F1 cells, no β-MSH, read-out: Endogenous Melanin Inhibition IC50
[10] = Table 3, mouse B16 F1 cells, β-MSH induction, read-out: MSH Induced Melanin Inhibition IC50
[11] = Mus musculus, B16 F1 cells, without β-MSH induction, read-out: IC50 for melanin formation, endogenous experiment
[12] = Mus musculus, B16 F1 cells, with β-MSH induction, read-out: IC50 for melanin formation, induced experiment
[13] = Table 2, synthetic diarylalkanes and/or diarylalkanols, read-out: Tyrosinase Inhibition (IC50)
[14] = read-out: IC50 for inhibition of tyrosinase

Sequence of mushroom tyrosinase (C7FF04 1-392 limits assumed): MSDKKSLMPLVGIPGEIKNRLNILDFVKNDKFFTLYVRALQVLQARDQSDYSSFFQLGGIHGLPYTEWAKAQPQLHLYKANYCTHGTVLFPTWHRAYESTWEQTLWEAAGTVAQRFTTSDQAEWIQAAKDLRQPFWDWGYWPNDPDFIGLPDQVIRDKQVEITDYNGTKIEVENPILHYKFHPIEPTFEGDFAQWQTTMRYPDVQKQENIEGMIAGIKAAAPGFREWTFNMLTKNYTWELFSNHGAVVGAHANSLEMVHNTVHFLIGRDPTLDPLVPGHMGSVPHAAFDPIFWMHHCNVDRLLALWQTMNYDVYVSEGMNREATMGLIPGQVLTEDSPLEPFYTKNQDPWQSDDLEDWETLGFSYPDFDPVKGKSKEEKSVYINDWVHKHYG
Sequence of human tyrosinase hydroxylase activity (P14679 19-529): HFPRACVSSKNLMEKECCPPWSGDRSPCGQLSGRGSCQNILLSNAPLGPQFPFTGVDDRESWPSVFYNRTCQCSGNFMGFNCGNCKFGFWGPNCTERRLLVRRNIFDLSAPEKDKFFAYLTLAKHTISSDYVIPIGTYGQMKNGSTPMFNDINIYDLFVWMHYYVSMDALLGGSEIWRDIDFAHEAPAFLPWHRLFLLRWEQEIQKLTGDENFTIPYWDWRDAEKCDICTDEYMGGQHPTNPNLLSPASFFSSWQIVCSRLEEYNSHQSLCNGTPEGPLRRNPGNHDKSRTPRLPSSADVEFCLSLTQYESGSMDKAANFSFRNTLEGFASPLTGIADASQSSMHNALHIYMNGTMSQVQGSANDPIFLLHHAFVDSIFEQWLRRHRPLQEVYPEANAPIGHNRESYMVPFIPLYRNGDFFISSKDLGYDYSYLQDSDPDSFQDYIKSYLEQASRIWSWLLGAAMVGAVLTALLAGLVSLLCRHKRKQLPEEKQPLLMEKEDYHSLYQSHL

Compound: CC(=O)Cc1cc(=O)c2c(C)cc(O)c([C@@H]3O[C@H](CO)[C@@H](O)[C@H](O)[C@H]3O)c2o1 [aloesin]
IC50 [1]: 700 µM
IC50 [2]: 920 µM
IC50 [3]: 167 µM

IC50 [4, 9]: 108 µM
IC50 [6, 10]: 105 µM
Compound: COc1ccc(O)c(CCCc2ccc(O)cc2OC)c1 [UP288, 1-(2-methoxy-4-hydroxyphenyl)-3-(2′-hydroxy-5′-methoxyphenyl)-propane]
Inhibition of melanin production relative to kojic acid, in words [4]: comparable to kojic acid; also recorded: at least as good, if not better inhibitors than kojic acid
Cell Toxicity (LDH) ([5]; mouse, 4 days, 250 μM): 0.315
Tyrosinase inhibitory activity in words [7]: as potent a tyrosinase inhibitor as kojic acid; also recorded: strong tyrosinase inhibition activity

Time until tyrosinase activity was totally restored following incubation [8]: 1 h
IC50 [4, 11]: 170 µM
IC50 [4, 9]: 170 µM
IC50 [6, 12]: 67 µM
IC50 [6, 10]: 67 µM
Compound: O=c1cc(CO)occ1O [Kojic acid, kojic acid, reference compound]
IC50 [1]: 410 µM
Cell Toxicity (LDH) ([5]; 250 μM treated wells): 0.260

Compound: COc1cc(CCC(O)c2ccc(O)cc2O)ccc1O (centres unmarked) [1-(2,4-dihydroxyphenyl)-3-(3′-methoxy-4′-hydroxyphenyl)-1-propanol]
Tyrosinase inhibitory activity in words [7]: quite strong tyrosinase inhibitory activity

Resumption of tyrosinase activity after incubation with inhibitor [8]: not resumed for several days
Type of tyrosinase inhibition ([8]; inhibitor 0, 261, 522, 1044 nM, L-DOPA 0.75, 1.25, 2.5 mM): powerful competitive inhibitor
IC50 [4, 11]: 28 µM
IC50 [4, 9]: 28 µM
IC50 [6, 12]: 40 µM
IC50 [6, 10]: 40 µM
Tyrosinase inhibitory activity in words [7]: strong tyrosinase inhibitory activity
Compound: COc1ccc(CCCc2ccc(O)cc2O)c(OC)c1C [UP302a, 1-(3-methyl-2,4-dimethoxyphenyl)-3-(2′,4′-dihydroxyphenyl)-propane]
Inhibition of melanin production relative to kojic acid, in words [4]: at least as good, if not better inhibitors than kojic acid
Cell Toxicity (LDH) ([5]; mouse, 4 days, 250 μM): 0.265
Inhibition of MSH induced melanin production relative to kojic acid ([6]; B-16 cell line): significantly greater than kojic acid

IC50 [7, 13]: 72 µM
IC50 [7, 14]: 72 µM
Compound: COc1ccc(C(O)CCc2ccc3c(c2)OCCCCO3)c(O)c1 (centres unmarked) [1-(2-hydroxy-4-methoxyphenyl)-3-(2′,3′,4′,5′-tetrahydro-benzo(b)dioxoin-8′-yl)-1-propanol]

Compound: OC[C@H]1O[C@@H](Oc2ccc(O)cc2)[C@H](O)[C@@H](O)[C@@H]1O [arbutin]
IC50 [1]: 3020 µM

IC50 [7, 13]: 225 µM
IC50 [7, 14]: 225 µM
Compound: COc1ccc(C(O)CCc2ncc(Cl)n2C)c(O)c1 (centres unmarked) [3-(5′-chloro-1′-methyl-1′-hydro-imidazol-2′-yl)-1-(2-hydroxy-4-methoxyphenyl)-1-propanol]

IC50 [7, 13]: 30 µM
Compound: COc1ccc(O)c(C(O)CCc2ccc(OC)c(OC)c2)c1 (stereo not drawn) [l-(2-hydroxy-5-methoxyphenyl)-3-(3′,4′-dimethoxyphenyl)-1-propanol]
